Tests used:
SAMP8 mice = assay: Step-through passive avoidance learning experiment; assay type: in vivo, mouse
From the text: Aging promoted mouse (SAMP8,3-week-old, male, each group N=8−10) models were divided into a group given a feed (CE-2, manufactured by (LEA Japan, Inc.) containing 0.5% of reduced coenzyme Q10 (containing about 1% oxidized coenzyme Q10) obtained in Production Example 1 and a group given a basic feed (CE-2, manufactured by CLEA Japan, Inc.) alone as a control group. The both groups were allowed a free access to the feed. The dose of reduced coenzyme Q10 obtained from the ingested amount of the feed and the body weight of the animal generally corresponded to 300-500 mg/kg/day.
The effect of reduced coenzyme Q for the learning and memory function was examined by a step-through passive avoidance learning experiment. When SAMP8 mice were placed in a light compartment of an apparatus consisting of two light and dark compartments, they enter the dark compartment since mouse prefers darkness. The mice were taught that the dark compartment was dangerous by applying an electric current (0.5 mA) for 3 sec from the floor of the dark compartment (acquisition trial). […]
To be specific, the mice were placed in the same apparatus again, and the time of stay in the light compartment was measured, based on which the learning, memory function of the mice was compared between with and without ingestion of reduced coenzyme Q in the present invention. […]

PC12 cells = assay: Nerve cell protection on hydrogen peroxide-induced cell death (intracellular ATP amount); assay type: cell-based; conditions: 25, 50, 100 μg/ml for 24 hr, then 0.06 mM hydrogen peroxide; compared with oxidized coenzyme Q10
Method: As one of the causes of the nerve cell death, active oxygen species produced for various reasons is known. Therefore, a cell death protecting action of reduced coenzyme Q10 when PC12 cells are exposed to hydrogen peroxide was examined. PC12 cells were cultured in Dulbecco's Modified Eagle Medium containing 200 units of penicillin, 0.1 μg/ml streptomycin, and 10% fetal bovine serum under 37° C., 5% CO2 conditions. The cells were plated to a 96 well microplate at 1×10^4 cells/well, and cultured under the conditions of 37° C., 5% CO2. After 24 hr, the medium was removed and substituted with Dulbecco's Modified Eagle Medium containing 200 units of penicillin, […] streptomycin and 0.5% fetal bovine serum and supplemented with reduced coenzyme Q10 and oxidized coenzyme Q10 (25, 50, 100 μg/ml). After 24 hr, the medium was removed, and the cells were exposed to hydrogen peroxide so that the final concentration in the same medium would be 0.06 mM 24 hr later, and cultured under the conditions of 37° C., 5% CO2 for 15 min. The cells were washed 3 times with PBS, and the intracellular ATP amount was measured using an ATP quantify kit (Perkin Elmer) and compared.

[1] = test system: normal rat or spontaneously diabetic rat; conditions: cited from earlier work
rat = conditions: 1.2 g/kg/day for 52 consecutive weeks; cited from earlier work
[2] = test system: model mouse with Parkinson's disease; conditions: cited from earlier work

COc1c(O)c(C)c(C/C=C(\C)CC/C=C(\C)CC/C=C(\C)CC/C=C(\C)CC/C=C(\C)CC/C=C(\C)CC/C=C(\C)CC/C=C(\C)CC/C=C(\C)CCC=C(C)C)c(O)c1OC [reduced coenzyme Q10]
response latency time (passive avoidance test) (SAMP8 mice; feed containing 0.5% reduced coenzyme Q10 (300-500 mg/kg/day), after 8 weeks (11-week-old), vs control group): the number of mouse that showed a prolonged response latency time increased
learning and memory disorder-improving effect (SAMP8 mice; short time administration, feed containing 0.5% reduced coenzyme Q10, 8 weeks): a learning and memory disorder-improving effect was observed
cell death of PC12 cells induced by hydrogen peroxide (PC12 cells): significantly prevented
tissue degeneration caused by oxidative stress in the pancreas ([1]; diabetic rat): suppress
amount of 8-hydroxy deoxyguanosine (oxidization marker) in urine ([1]; normal rat or spontaneously diabetic rat): decrease

COC1=C(OC)C(=O)C(C/C=C(\C)CC/C=C(\C)CC/C=C(\C)CC/C=C(\C)CC/C=C(\C)CC/C=C(\C)CC/C=C(\C)CC/C=C(\C)CC/C=C(\C)CCC=C(C)C)=C(C)C1=O [Oxidized coenzyme Q10, oxidized coenzyme Q10]
toxicity (rat): no toxicity was observed

oxidized coenzyme Q
symptom improving effect [2]: shows a symptom improving effect

— US20090246186A1, “AGENT FOR IMPROVING NERVOUS SYSTEM CELL FUNCTIONS” (KANEKA CORPORATION, priority 2006, published 2009)
